Like-named read-outs stand apart in the source and are kept apart here. Each block holds one molecule with its values, some of them ahead of it.
How the values were obtained:
Assay type in all cases: cell-based
Kv1.1-E283K channels = molecular target: T1, Kv1.1-E283K channels (Homo sapiens, UniProt Q09470, E283K); assay: TEVC of oocytes injected with 100% Kv1.1-E283K cRNA; conditions: for EC50: biphasic dose response
T1 construct: expressed in transfected cells; host or cells: Xenopus laevis oocytes
T1 sequence (Q09470 whole entry E283K): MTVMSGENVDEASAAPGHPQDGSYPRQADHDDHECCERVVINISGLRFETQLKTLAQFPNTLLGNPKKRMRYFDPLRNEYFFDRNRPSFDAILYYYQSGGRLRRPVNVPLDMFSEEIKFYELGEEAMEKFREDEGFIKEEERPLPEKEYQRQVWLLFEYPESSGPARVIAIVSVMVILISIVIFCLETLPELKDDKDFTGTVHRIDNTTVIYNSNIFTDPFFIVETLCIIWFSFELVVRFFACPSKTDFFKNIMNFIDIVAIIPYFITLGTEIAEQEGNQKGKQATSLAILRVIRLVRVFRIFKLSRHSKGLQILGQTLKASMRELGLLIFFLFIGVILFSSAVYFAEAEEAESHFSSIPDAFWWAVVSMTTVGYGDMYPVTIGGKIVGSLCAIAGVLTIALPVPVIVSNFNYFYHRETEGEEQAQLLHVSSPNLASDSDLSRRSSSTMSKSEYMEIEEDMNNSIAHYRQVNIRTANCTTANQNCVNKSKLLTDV

[1] = molecular target: T2, Kv1.1/Kv1.1-G311D channels (Homo sapiens, UniProt Q09470, G311D); assay: TEVC of oocytes co-injected with 50/50 wild-type/G311D Kv1.1 cRNA; conditions: for effect on channel activity: compound 1 µM
T2 construct: expressed in transfected cells; host or cells: Xenopus laevis oocytes co-injected with 50/50 wild-type/mutant cRNA
T2 sequence (Q09470 whole entry, stated change not applied): as the sequence (Q09470 whole entry E283K) above, with K283E counted along it
T2 sequence (Q09470 whole entry G311D): as the sequence (Q09470 whole entry E283K) above, with K283E, G311D counted along it
Method: (§1) We next tested effects on channels generated by co-injection of 50/50 wild-type/mutant Kv1.1 cRNA. Strikingly, gallic acid (1 µM) was able to hyperpolarize (by −15.5 ± 0.5 mV; n = 4; P < 0.0001) the V0.5 act of Kv1.1/Kv1.1-E283K channels, restoring voltage dependence typical of wild-type Kv1.1 (Fig. 7a–c), also inducing a −14 ± 0.7 mV hyperpolarization (n = 4; P = 0.0005) in EM of oocytes expressing Kv1.1/Kv1.1-E283K (Fig. 7d). […] Because of this hint at activity improvement in L155P channels we also applied higher concentrations (10 and 100 µM) of gallic acid, which produced a more robust (−12.5 ± 0.6 mV and −14.1 ± 0.6 mV, respectively) hyperpolarization of Kv1.1/Kv1.1-L155P V0.5 act (Fig. 8b, c) and hyperpolarized EM by −14.0 ± 0.6 mV and −15.2 ± 0.7 mV, respectively (Fig. 8d).
(§2) Wild-type and mutant Kv1 cDNAs were generated (Genscript, Piscataway, NJ) in the pTLNx expression vector. As previously described, we generated cRNA transcripts encoding human Kv1.1 (wild-type and mutant) and Kv1.2, by in vitro transcription using the mMessage mMachine kit (Thermo Fisher Scientific), after vector linearization, from cDNA sub-cloned into plasmids (pTLNx) incorporating Xenopus laevis β-globin 5’ and 3’ UTRs flanking the coding region to enhance translation and cRNA stability. […]
(§3) We performed TEVC at room temperature using an OC-725C amplifier (Warner Instruments, Hamden, CT) and pClamp10 software (Molecular Devices, Sunnyvale, CA) 2 days after cRNA injection as described in the section above. […] We recorded currents in response to voltage pulses between −80 mV and +40 mV at 10 or 20 mV intervals from a holding potential of −80 mV, to yield current-voltage relationships and examine activation kinetics. To calculate the voltage dependence of activation (V0.5), tail currents were recorded at a voltage pulse of −50 mV immediately following prepulse voltages between −80 mV and +40 mV. We analyzed data using Clampfit (Molecular Devices) and Graphpad Prism software (GraphPad, San Diego, CA, USA), stating values as mean ± SEM. […]

wild-type human Kv1.1 = molecular target: T3, wild-type human Kv1.1 (Homo sapiens, UniProt Q09470); assay: Two-electrode voltage clamp of oocytes expressing wild-type Kv1.1; conditions: for shift of midpoint voltage-dependence of activation (V0.5 act): 100 µM; for effect on Kv1.1 activity: compound 100 µM; for EM (unclamped oocyte membrane potential) / Slope / V0.5 Normalized tail current: in presence of 100 µM compound
T3 construct: expressed in transfected cells; host or cells: Xenopus laevis oocytes injected with cRNA (pTLNx vector)
T3 sequence (Q09470 whole entry): as the sequence (Q09470 whole entry E283K) above, with K283E counted along it
Excerpt: Wild-type and mutant Kv1 cDNAs were generated (Genscript, Piscataway, NJ) in the pTLNx expression vector. As previously described, we generated cRNA transcripts encoding human Kv1.1 (wild-type and mutant) and Kv1.2, by in vitro transcription using the mMessage mMachine kit (Thermo Fisher Scientific), after vector linearization, from cDNA sub-cloned into plasmids (pTLNx) incorporating Xenopus laevis β-globin 5’ and 3’ UTRs flanking the coding region to enhance translation and cRNA stability. We injected defolliculated stage V and VI Xenopus laevis oocytes (Xenoocyte, Dexter, MI, US) with Kv1 cRNAs (1–5 ng). We incubated the oocytes at 16 °C in ND96 oocyte storage solution containing penicillin and streptomycin, with daily washing, for 2 days prior to two-electrode voltage-clamp (TEVC) recording.
We performed TEVC at room temperature using an OC-725C amplifier (Warner Instruments, Hamden, CT) and pClamp10 software (Molecular Devices, Sunnyvale, CA) 2 days after cRNA injection as described in the section above. For recording, oocytes we placed in a small-volume oocyte bath (Warner) and viewed with a dissection microscope. We sourced chemicals from Sigma. We studied effects of plant extracts and of compounds, solubilized directly in bath solution (in mM): 96 NaCl, 4 KCl, 1 MgCl2, 1 CaCl2, 10 HEPES (pH 7.6). We introduced extracts or compounds into the oocyte recording bath by gravity perfusion at a constant flow of 1 ml per minute for 3 min prior to recording. Pipettes were of 1–2 MΩ resistance when filled with 3 M KCl. We recorded currents in response to voltage pulses between −80 mV and +40 mV at 10 or 20 mV intervals from a holding potential of −80 mV, to yield current-voltage relationships and examine activation kinetics. To calculate the voltage dependence of activation (V0.5), tail currents were recorded at a voltage pulse of −50 mV immediately following prepulse voltages between −80 mV and +40 mV. We analyzed data using Clampfit (Molecular Devices) and Graphpad Prism software (GraphPad, San Diego, CA, USA), stating values as mean ± SEM. We plotted raw or normalized tail currents vs. prepulse voltage and fitted with a single Boltzmann function:1 g=(A1−A2)/1+exp[V1/2−V/Vs]y+A2 where g is the normalized tail conductance, A1 is the initial value at -∞, A2 is the final value at +∞, V1/2 is the half-maximal voltage of activation and Vs the slope factor.

Kv1.1-L155P channels = molecular target: T4, Kv1.1-L155P channels (Homo sapiens, UniProt Q09470, L155P); assay: TEVC of oocytes expressing 100% Kv1.1-L155P; conditions: compound 1 µM
T4 construct: expressed in transfected cells; host or cells: Xenopus laevis oocytes
T4 sequence (Q09470 whole entry L155P): as the sequence (Q09470 whole entry E283K) above, with L155P, K283E counted along it
Excerpt: As previously described[24], we generated cRNA transcripts encoding human Kv1.1 (wild-type and mutant) and Kv1.2, by in vitro transcription using the mMessage mMachine kit (Thermo Fisher Scientific), after vector linearization, from cDNA sub-cloned into plasmids (pTLNx) incorporating Xenopus laevis β-globin 5’ and 3’ UTRs flanking the coding region to enhance translation and cRNA stability. We injected defolliculated stage V and VI Xenopus laevis oocytes (Xenoocyte, Dexter, MI, US) with Kv1 cRNAs (1–5 ng). […]

Kv1.1-G311D channels = molecular target: T5, Kv1.1-G311D channels (Homo sapiens, UniProt Q09470, G311D); assay: TEVC of oocytes expressing 100% Kv1.1-G311D; conditions: compound 1 µM
T5 construct: expressed in transfected cells; host or cells: Xenopus laevis oocytes
T5 sequence (Q09470 whole entry G311D): as the sequence (Q09470 whole entry E283K) above, with K283E, G311D counted along it
Excerpt: EA1 mutant G311D is in the S4-5 linker of Kv1.1 (Fig. 5a) and produces a 65% prepulse current reduction both in Kv1.1-G311D and in Kv1.1/Kv1.1-G311D channels[43],[44]; either channel type was minimally responsive to the plant extracts tested (Supplementary Figs. 3 and 4). EA1 mutant L328V (which is associated with tetany and hypomagnesemia) is located in the intracellular end of Kv1.1 S5 (Fig. 5a) and results in complete current loss in a dominant negative manner, i.e., Kv1.1-L328V and Kv1.1/Kv1.1-L328V channels are each nonfunctional. The traditional ataxia remedy plant extracts were unable to rescue Kv1.1-L328V or Kv1.1/Kv1.1-L328V function (Supplementary Figs. 5 and 6). EA1 mutant V408A is in the intracellular-proximal end of Kv1.1 S6 (Fig. 5a) and reduces current, speeds deactivation, and increases C-type inactivation of Kv1.1[46]. Here, Native American ataxia remedy extracts had relatively minor effects on Kv1.1-V408A activity, with nettle and Pacific ninebark (roots or leaves) inducing hyperpolarizing shifts in EM, and Pacific ninebark leaves inducing a negative shift in the voltage dependence of activation, although this was not quantifiable due to the very small tail currents (Supplementary Fig. 7). Effects of the extracts on Kv1.1/Kv1.1-V408A activity were also relatively minor (Supplementary Fig. 8). […]

[2] = molecular target: T6, Kv1.1/Kv1.1-L328V channels (Homo sapiens, UniProt Q09470, L328V); assay: TEVC of oocytes co-injected with 50/50 wild-type/L328V Kv1.1 cRNA; conditions: for effect on channel activity: compound 1 µM
T6 construct: expressed in transfected cells; host or cells: Xenopus laevis oocytes co-injected with 50/50 wild-type/mutant cRNA
T6 sequence (Q09470 whole entry, stated change not applied): as the sequence (Q09470 whole entry E283K) above, with K283E counted along it
T6 sequence (Q09470 whole entry L328V): as the sequence (Q09470 whole entry E283K) above, with K283E, L328V counted along it
Method: as §1, §2, §3

[3] = -20 mV, Figure 6 table, head 1 µM Tannic acid, footnote bladderwrack kelp

Molecule: O=C(O)c1cc(O)c(O)c(O)c1 [gallic acid]
effect on channel activity (Kv1.1-E283K channels; compound 1 µM): only very minor functional improvements | effect on channel activity [1]: negligible | EM ([1]; in presence of 1 µM compound): -47.00 ± 2.56 mV | shift of midpoint voltage-dependence of activation (V0.5 act) (wild-type human Kv1.1): −21.0 ± 2.5 mV | EC50 (wild-type human Kv1.1; EC50 for hyperpolarization of EM, oocytes expressing wild-type Kv1.1): 18 ± 6 nM | EC50 (wild-type human Kv1.1; EC50 for peak current augmentation, at −40 mV, Fig. 10): 379 ± 28 nM | EC50 (wild-type human Kv1.1; EC50 for ΔV0.5activation, dose response, Fig. 4): 54 ± 10 nM | lowest concentration that begins to hyperpolarize the resting membrane potential (wild-type human Kv1.1; Kv1.1-expressing oocytes): 100 nM | effect on Kv1.1 activity (wild-type human Kv1.1): highly efficacious Kv1.1 channel openers | maximal shift in V0.5activation (wild-type human Kv1.1; dose response, Fig. 4a): −20 mV | EM (unclamped oocyte membrane potential) (wild-type human Kv1.1): -49.60 ± 0.91 mV | Slope (wild-type human Kv1.1): 12.10 ± 2.32 mV | V0.5 Normalized tail current (wild-type human Kv1.1): -37.17 ± 2.59 mV | effect on channel activity (Kv1.1-L155P channels): ineffective at rescuing activity | effect on channel activity (Kv1.1-G311D channels): ineffective at rescuing activity | effect on channel activity [2]: negligible | EM ([2]; in presence of 1 µM compound): -33.00 ± 1.09 mV

TauAct (Kv1.1-E283K channels; 0 mV, 1 µM, Figure 9 table): 15.70 ± 1.40 ms | TauAct (Kv1.1-E283K channels; 0 mV, Figure 6 table, head 1 µM Tannic acid, footnote bladderwrack kelp): 21.12 ± 4.35 ms | Peak current at -40 mV (Kv1.1-E283K channels; 0.1 µM): 0.02 ± 0.01 µA | Peak current at -40 mV (Kv1.1-E283K channels; 1 µM): 0.02 ± 0.01 µA | shift in the EM (Kv1.1-E283K channels; 1 µM): ~−20 mV | shift of V0.5 activation (Kv1.1-E283K channels; 1 µM): −13 ± 0.26 mV | Current-fold change -30 mV (Kv1.1-E283K channels; 1 µM compound): 4.69 ± 1.69 | increase of activity (Kv1.1-E283K channels; 1 µM, at −40 to −20 mV): ≤ 20 fold | Peak current at -40 mV (Kv1.1-E283K channels; 10 µM): 0.02 ± 0.01 µA | Peak current at -40 mV (Kv1.1-E283K channels; 30 µM): 0.02 ± 0.01 µA | Peak current at -40 mV (Kv1.1-E283K channels; 100 µM): 0.03 ± 0.01 µA | TauAct (Kv1.1-E283K channels; +10 mV, 1 µM, Figure 9 table): 12.94 ± 1.05 ms | TauAct (Kv1.1-E283K channels; +10 mV, Figure 6 table, head 1 µM Tannic acid, footnote bladderwrack kelp): 17.43 ± 3.97 ms | TauAct (Kv1.1-E283K channels; +20 mV, 1 µM, Figure 9 table): 11.30 ± 0.89 ms | TauAct (Kv1.1-E283K channels; +20 mV, Figure 6 table, head 1 µM Tannic acid, footnote bladderwrack kelp): 12.72 ± 2.85 ms | TauAct (Kv1.1-E283K channels; +30 mV, 1 µM, Figure 9 table): 10.16 ± 0.83 ms | TauAct (Kv1.1-E283K channels; +30 mV, Figure 6 table, head 1 µM Tannic acid, footnote bladderwrack kelp): 10.63 ± 2.79 ms | TauAct (Kv1.1-E283K channels; +40 mV, 1 µM, Figure 9 table): 9.46 ± 0.83 ms | TauAct (Kv1.1-E283K channels; +40 mV, Figure 6 table, head 1 µM Tannic acid, footnote bladderwrack kelp): 10.04 ± 2.65 ms | TauAct (Kv1.1-E283K channels; -10 mV, 1 µM, Figure 9 table): 20.71 ± 2.35 ms | TauAct (Kv1.1-E283K channels; -10 mV, Figure 6 table, head 1 µM Tannic acid, footnote bladderwrack kelp): 27.06 ± 7.08 ms | TauAct (Kv1.1-E283K channels; -20 mV, 1 µM, Figure 9 table): 31.31 ± 2.98 ms | TauAct (Kv1.1-E283K channels; [3]): 41.32 ± 8.47 ms | TauDeact (Kv1.1-E283K channels; [3]): 0.87 ± 0.36 ms | TauDeact (Kv1.1-E283K channels; -30 mV, Figure 6 table, head 1 µM Tannic acid, footnote bladderwrack kelp): 0.79 ± 0.32 ms | TauDeact (Kv1.1-E283K channels; -40 mV, Figure 6 table, head 1 µM Tannic acid, footnote bladderwrack kelp): 0.88 ± 0.36 ms | TauDeact (Kv1.1-E283K channels; -50 mV, Figure 6 table, head 1 µM Tannic acid, footnote bladderwrack kelp): 1.04 ± 0.44 ms | TauDeact (Kv1.1-E283K channels; -60 mV, Figure 6 table, head 1 µM Tannic acid, footnote bladderwrack kelp): 1.23 ± 0.52 ms | TauDeact (Kv1.1-E283K channels; -70 mV, Figure 6 table, head 1 µM Tannic acid, footnote bladderwrack kelp): 1.38 ± 0.56 ms | TauDeact (Kv1.1-E283K channels; -80 mV, Figure 6 table, head 1 µM Tannic acid, footnote bladderwrack kelp): 1.50 ± 0.57 ms | EC50 (Kv1.1-E283K channels; read-out: EC50 for effects on EM, first component): 1.1 ± 0.9 nM | EC50 (Kv1.1-E283K channels; read-out: EC50 for effects on EM, second component): 10000 ± 400 nM | EC50 (Kv1.1-E283K channels; from the increase in relative tail current at −40 mV, read-out: EC50, higher sensitivity component): 3.7 ± 2.6 nM | EM (Kv1.1-E283K channels; in presence of 1 µM compound): -44.83 ± 0.14 mV | Slope (Kv1.1-E283K channels; in presence of 1 µM compound): 8.70 ± 1.19 mV | V0.5 Normalized tail current (Kv1.1-E283K channels; in presence of 1 µM compound): -22.75 ± 1.34 mV | effect on channel activity [1]: minimal | shift of midpoint voltage-dependence of activation (V0.5 act) (wild-type human Kv1.1): −25.6 ± 2.6 mV | effect on Kv1.1 activity (wild-type human Kv1.1): highly efficacious Kv1.1 channel openers | EC50 (wild-type human Kv1.1; dose response, Fig. 4, read-out: EC50 for ΔV0.5activation): 19 ± 1.5 nM | EM (unclamped oocyte membrane potential) (wild-type human Kv1.1): -54.40 ± 1.23 mV | Slope (wild-type human Kv1.1): 13.67 ± 2.01 mV | V0.5 Normalized tail current (wild-type human Kv1.1): -44.95 ± 2.49 mV | effect on channel activity (Kv1.1-L155P channels): did not alter | effect on channel activity (Kv1.1-G311D channels): did not alter | effect on channel activity [2]: minimal
Molecule: tannic acid
